The target of one assay is T1, Menin-MLL1 (Homo sapiens, UniProt O00255).
T1 construct: Menin (2-610) isform2; purchased ChemPartner 2020111101
T1 sequence (O00255 2-610): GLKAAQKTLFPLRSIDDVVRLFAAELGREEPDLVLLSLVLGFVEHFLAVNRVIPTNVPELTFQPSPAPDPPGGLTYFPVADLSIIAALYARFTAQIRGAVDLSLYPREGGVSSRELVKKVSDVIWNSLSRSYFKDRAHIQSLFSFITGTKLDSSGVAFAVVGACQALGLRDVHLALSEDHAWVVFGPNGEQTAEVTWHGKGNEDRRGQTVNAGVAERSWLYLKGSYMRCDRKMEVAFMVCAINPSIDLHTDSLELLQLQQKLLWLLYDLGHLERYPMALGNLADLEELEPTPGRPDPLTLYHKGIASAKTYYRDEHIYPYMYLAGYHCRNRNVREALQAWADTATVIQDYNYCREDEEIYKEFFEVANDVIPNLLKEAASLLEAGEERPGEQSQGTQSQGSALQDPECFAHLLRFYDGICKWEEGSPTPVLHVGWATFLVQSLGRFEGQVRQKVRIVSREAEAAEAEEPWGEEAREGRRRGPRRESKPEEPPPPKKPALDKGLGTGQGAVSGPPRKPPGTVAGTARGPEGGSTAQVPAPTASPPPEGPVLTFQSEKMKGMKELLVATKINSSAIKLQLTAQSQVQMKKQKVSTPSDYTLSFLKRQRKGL
The assay is described as follows: Menin-MLL1 inhibition assay (fluorescence polarization, Menin protein + FAM-MLL peptide). The format is binding. To be noted: Menin (2-610) isoform 2, FAM-labelled MLL peptide, mP readout; read-out: Biochemical assay Menin-MLL1 IC50. The method, then: 1× assay bu9ffer (Tris 7.5 50 mM, NaCl 50 mM, DTT 1 mM, Tween-20 0.01%) was prepared and test compounds solution (10 mM in DMSO, Sigma, Cat. No. 34869) were transferred to assay plate (384-well plate, Perkin Elmer, Cat. No. 6007279) by Echo. The final fraction of DMSO is 1%. 20 nM of Menin protein (Menin (2-610) isform2, ChemPartner, Cat. No. 2020111101) in 1× assay buffer was added to prepare 2× enzyme solution. Then 10 nM of MLL-peptide (Ac-SRWRFPARPGTGRR-Ahx-Ahx-K(FAM)-NH2, GL Biochem (Shanghai)), Cat. No. 833831/202009220104) in 1× assay buffer was added to prepare 2× substrate solution. 10 μL of 2× enzyme solution was transferred to assay plate or 10 μL of 1× assay buffer for low control group. 10 μL of 2× substrate solution was added to each well to start reaction. mP data on Envision (Ex480/Em535(s), Em535(p)) was collected.
Compound potencies were determined by first calculating % inhibition at each compound concentration according to equation 1:
Inhibition %=(Max−Signal)/(Max−Min)*100 (Equation 1)
Y=Bottom+(Top-Bottom)/(1+(IC50/X)[…]), where Y is % inhibition and X is compound concentration (Equation 2)

The test system of a further assay is MV-4-11 cells. In words: Cell proliferation assay (CellTiter-Glo), MV-4-11. It is filed as cell-based, human. Particulars: Homo sapiens, MV4-11, 96 h; MV-4-11 (MLL-AF4), 4 days incubation; read-out: Cell antiproliferation assay MV-4-11 IC50. The method, then: The antiproliferative activity of test compounds was assessed in human leukemia cell lines. The cell line MV4-11, MOLM13 and OCI-AML3, which expresses the MLL fusion protein MLL-AF4, MLL-AF9 and carry the NPM1c gene mutation, respectively, were tested. HL-60 was used as a control cell line containing two MLL wildtype alleles in order to exclude compounds that display general cytotoxic effect. MV4-11 cells were cultured in IMDM supplemented with 10% FBS, MOLM13 and OCI-AML3 cells were cultured in RPMI1640 supplemented with 20% FBS, and HL-60 cells were cultured in IMDM supplemented with 20% FBS. Corresponding cells (MV4-11, MOLM13, OCI-AML3 or HL-60 cell line) were seeded in 100 uL medium per well in 96-well plate (white wall with clear bottom, tissue culture treated, Corning, Cat. No. CLS3903; Lot.No. 30419025). Plates were placed in the CO2 incubator overnight. Compounds solution (2 mM starting, 4-fold serial dilution) were prepared and added to the wells containing 100 μL of the culture medium with HPD300 according to the plate map and centrifuge at 1000 rpm for 1 minutes (200-fold dilution totally). MV4-11, MOLM13, OCI-AML3 and HL-60 cells were incubated with the compounds for 4, 12, 5 and 4 days, respectively, under 5% CO2 at 37° C., respectively. 100 μL of CellTiter-Glo reagent (Promega, Cat. No. G7573, Lot. No. 0000416710) was added to the assay plate by Multidrop Combi instrument, contents were mixed for 10 minutes on an orbital shaker to induce cell lysis. After incubation at room temperature for 10 mins, clear bottom with white back seal was pasted and luminescence with Envision was read.
A general note: In ATP-based viability assays light output follows the ATP content of the culture.

Consider `O=C([C@@H]1C[C@@H](F)CN1)N1CCC2(CC1)CN(c1ncncc1Oc1ccc(F)cc1C(=O)N1C3CCC1COC3)C2` [Example 59], for which the IC50 on Menin-MLL1 was found to be 0.0055 µM; in the assay with MV-4-11 cells, 0.159 µM.
In the same order, the values of `CCN(C(=O)c1cc(F)ccc1Oc1cncnc1N1CC2(CCN(C(=O)[C@@H]3C[C@@H](F)CN3)CC2)C1)C1CC1` [Example 20] are 0.0101 µM and 0.267 µM.
For the compound `CC(C)N(CC(F)F)C(=O)c1cc(F)ccc1Oc1cncnc1N1CC2(CCN(C(=O)[C@@H]3C[C@@H](F)CN3)CC2)C1` [Example 45], the IC50 on Menin-MLL1 came to 0.0034 µM; in the assay with MV-4-11 cells, 0.0361 µM.
Taken in the same sequence, the figures for `CCN(C(=O)c1cc(F)ccc1Oc1nncnc1N1CC2(CCN(C(=O)[C@@H]3CC(CC#N)CN3)CC2)C1)C(C)C` (stereo partly drawn) [Example 61] were 0.0061 µM and 0.153 µM.
Take `CCN(C(=O)c1cc(F)ccc1Oc1nncnc1N1CC2(CCN(C(=O)[C@H]3NC[C@@H]4CC(F)(F)C[C@@H]43)CC2)C1)C(C)C` (single isomer, unassigned) [Example 98d]: the results for the IC50 on Menin-MLL1 and in the assay on MV-4-11 cells were 0.0023 µM and 0.0295 µM, respectively.
In the same order, the values of `CCN(C(=O)c1cc(F)ccc1Oc1nncnc1N1CC2(CCN(C(=O)[C@H]3NCC[C@@H]3C(F)F)CC2)C1)C(C)C` [Example 99a, 2-((5-(7-((2S,3S)-3-(difluoromethyl)pyrrolidine-2-carbonyl)-2,7-diazaspiro[3.5]nonan-2-yl)-1,2,4-triazin-6-yl)oxy)-N-ethyl-5-fluoro-N-isopropylbenzamide] are 0.0054 µM and 0.0464 µM.
Taken in the same sequence, the figures for `CC(C)N(CC(F)F)C(=O)c1cc(F)ccc1Oc1nncnc1N1CC2(CCN(C(=O)[C@H]3NC[C@@H]4CCC[C@@H]43)CC2)C1` [Example 105] were 0.004 µM and 0.0171 µM.
As for `CCN(C(=O)c1cc(F)ccc1Oc1nncnc1N1CC2(CCN(C(=O)[C@@H]3NC[C@@H]4CC(F)(F)C[C@@H]43)CC2)C1)C(C)C` (single isomer, unassigned) [Example 98b], the IC50 came out at 0.022 µM at Menin-MLL1 and 2.64 µM in the assay on MV-4-11 cells.
In the same order, the values of `CCN(C(=O)c1cc(F)ccc1Oc1nncnc1N1CC2(CCN(C(=O)[C@@H]3NCCC3(C)C)CC2)C1)C(C)C` [Example 66] are 0.011 µM and 0.308 µM.
In the case of `CCN(C(=O)c1cc(F)ccc1Oc1cncnc1N1CC2(CCN(C(=O)[C@H]3NCc4c3cnn4Cc3ccccc3)CC2)C1)C(C)C` [Example 44], the IC50 on Menin-MLL1 was 0.0039 µM; in the assay on MV-4-11 cells, 0.0307 µM.
Turning to `COCCN(C(=O)c1cc(F)ccc1Oc1cncnc1N1CC2(CCN(C(=O)[C@@H]3C[C@@H](F)CN3)CC2)C1)C(C)C` [Example 50], the IC50 at Menin-MLL1 was found to be 0.0044 µM; in the assay on MV-4-11 cells, 0.12 µM.
As for `CCN(C(=O)c1cc(F)ccc1Oc1cncnc1N1CC2(CCN(C(=O)[C@@H]3C[C@@]4(CN3)CC4(F)F)CC2)C1)C(C)C` [Example 24], the IC50 at Menin-MLL1 is 0.008 µM; in the assay with MV-4-11 cells, 0.102 µM.
For the compound `CCN(C(=O)c1cc(F)ccc1Oc1nncnc1N1CC2(CCN(C(=O)[C@@H]3NCC[C@H]3C3CC3)CC2)C1)C(C)C` [Example 100b], the IC50 came to 0.0117 µM on Menin-MLL1 and 0.285 µM in the assay on MV-4-11 cells.
Take `CC(C)N(CCO)C(=O)c1cc(F)ccc1Oc1nncnc1N1CC2(CCN(C(=O)[C@H]3NC[C@@H]4CCC[C@@H]43)CC2)C1` [Example 104]: the IC50 at Menin-MLL1 was found to be 0.0045 µM; in the assay with MV-4-11 cells it was 0.0267 µM.
In the same order, the values of `CCN(C(=O)c1cc(F)ccc1Oc1cncnc1N1CC2(CCN(C(=O)[C@@H]3C[C@@H](c4ccccc4)CN3)CC2)C1)C(C)C` [Example 48] are 0.0114 µM and 0.144 µM.
Taken in the same sequence, the figures for `CCN(C(=O)c1cc(F)ccc1Oc1cncnc1N1CC2(CCN(C(=O)[C@H]3NCc4ccccc43)CC2)C1)C(C)C` [Example 33] were 0.0045 µM and 0.0193 µM.
Take `CCN(C(=O)c1cc(F)ccc1Oc1cncnc1N1CC2(CCN(C(=O)[C@@H]3C[C@](F)(CF)CN3)CC2)C1)C(C)C` [Example 12]: the IC50 worked out at 0.0047 µM on Menin-MLL1 and 0.0682 µM in the assay with MV-4-11 cells.
`CCN(C(=O)c1cc(F)ccc1Oc1nnc(Cl)nc1N1CC2(CCN(C(=O)[C@H]3NC[C@@H]4C[C@@H]43)CC2)C1)C(C)C` [Example 91]: the values for the IC50 at Menin-MLL1 and with MV-4-11 cells were 0.0073 µM and 0.248 µM, respectively.
For `CO[C@H]1CCN[C@@H]1C(=O)N1CCC2(CC1)CN(c1ncnnc1Oc1ccc(F)cc1-c1ccc(C#N)nc1C1CC1)C2` [Example 101], the IC50 at Menin-MLL1 was 0.006 µM; in the assay with MV-4-11 cells it was 0.0068 µM.
Taken in the same sequence, the figures for `CCN(C(=O)c1cc(F)ccc1Oc1cncnc1N1CC2(CCN(C(=O)[C@@H]3C[C@]4(C)C[C@@H]4N3)CC2)C1)C(C)C` [Example 6] were 0.006 µM and 0.0338 µM.
Taken in the same sequence, the figures for `CCN(C(=O)c1cc(F)ccc1Oc1cncnc1N1CC2(CCN(C(=O)[C@@H]3C[C@]4(CO)CC4N3)CC2)C1)C(C)C` (stereo partly drawn) [Example 11] were 0.0063 µM and 0.128 µM.
Turning to `CCN(C(=O)c1cc(F)ccc1Oc1nncnc1N1CC2(CCN(C(=O)[C@H]3NC[C@H](C)[C@@H]3C)CC2)C1)C(C)C` [Example 92], the IC50 at Menin-MLL1 stood at 0.008 µM; with MV-4-11 cells, 0.0188 µM.
As to `CCN(C(=O)c1cc(C#N)ccc1Oc1cncnc1N1CC2(CCN(C(=O)[C@@H]3C[C@@H](F)CN3)CC2)C1)C(C)C` [Example 17], the IC50 at Menin-MLL1 amounted to 0.0253 µM; with MV-4-11 cells, 0.317 µM.
For `CCN(C(=O)c1cc(F)ccc1Oc1cncnc1N1CC2(CCN(C(=O)[C@@H]3C[C@H](F)CN3)CC2)C1)C(C)C` [Example 3], the IC50 is 0.0209 µM on Menin-MLL1 and 0.329 µM with MV-4-11 cells.
Taken in the same sequence, the figures for `CCN(C(=O)c1cc(F)ccc1Oc1cncnc1N1CC2(CCN(C(=O)[C@@H]3C[C@@]4(C)C[C@H]4N3)CC2)C1)C(C)C` [Example 9] were 0.0129 µM and 0.0407 µM.
In the same order, the values of `[2H]C([2H])(C)N(C(=O)c1cc(F)ccc1Oc1nncnc1N1CC2(CCN(C(=O)[C@H]3NC[C@@H]4CCC[C@@H]43)CC2)C1)C(C)C` [Example 102] are 0.0054 µM and 0.0046 µM.
In the same order, the values of `CCN(C(=O)c1cc(F)ccc1Oc1cncnc1N1CC2(CCN(C(=O)[C@@H]3C[C@H]4C[C@H]4N3)CC2)C1)C(C)C` [Example 32] are 0.0065 µM and 0.0754 µM.
Regarding `CCN(C(=O)c1cc(F)ccc1Oc1cncnc1N1CC2(CCN(C(=O)[C@@H]3CC[C@@H](F)CN3)CC2)C1)C(C)C` [Example 25], the IC50 came to 0.0084 µM at Menin-MLL1 and 0.233 µM in the assay on MV-4-11 cells.
In the same order, the values of `N#Cc1ccc(-c2cc(F)ccc2Oc2nncnc2N2CC3(CCN(C(=O)[C@H]4NC[C@@H]5C[C@@H]54)CC3)C2)c(C2CC2)n1` [Example 94] are 0.0034 µM and 0.0118 µM.
Taken in the same sequence, the figures for `CCN(C(=O)c1cc(F)ccc1Oc1cncnc1N1CC2(CCN(C(=O)[C@H]3NCc4[nH]ncc43)CC2)C1)C(C)C` [Example 54] were 0.0043 µM and 0.582 µM.

These data come from patent US20240317748A1, “CARBONYL SUBSTITUTED DIAZASPIRO COMPOUNDS AND ITS USE” (BIONOVA PHARMACEUTICALS (SHANGHAI) LIMITED, priority 2021, published 2024).
